Tests used:
Assay in all cases: drug sensitivity score (DSS) (DSS (dimensionless)); higher = more sensitive (stronger drug response)
[1] = system: FIMM-PDC3 (patient-derived ovarian cancer cells); conditions: genetic perturbation: none (patient-derived cell culture)
In short: (§1)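 Ovarian cancer cell lines, with shRNA induced by 100 ng/ml doxycycline for at least three days, and patient-derived cultures were seeded at 1 000 – 1 500 cells per well in 384-well plates holding drugs pre-plated in five concentrations over a 10,000-fold range. After three days at 37 °C and 5.0 % CO2, viability was read as CellTiter-Glo luminescence on a PHERAstar FS. Each drug's dose-response curve was summarised as a drug sensitivity score calculated as previously described.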

[2] = system: OVSAHO
In short: as §1

[3] = system: JHOS2
In short: as §1

[4] = system: FIMM-PDC6 (patient-derived ovarian cancer cells); conditions: genetic perturbation: none (patient-derived cell culture)
In short: as §1

[5] = system: Kuramochi
In short: as §1

[6] = system: FIMM-PDC7 (patient-derived ovarian cancer cells); conditions: genetic perturbation: none (patient-derived cell culture)
In short: as §1

[7] = system: FIMM-PDC1 (patient-derived ovarian cancer cells); conditions: genetic perturbation: none (patient-derived cell culture)
In short: as §1

[8] = system: FIMM-PDC4 (patient-derived ovarian cancer cells); conditions: genetic perturbation: none (patient-derived cell culture)
In short: as §1

[9] = system: FIMM-PDC5 (patient-derived ovarian cancer cells); conditions: genetic perturbation: none (patient-derived cell culture)
In short: as §1

[10] = genetic perturbation: DOX-induced PTK7 shRNA knockdown
[11] = genetic perturbation: DOX-induced control shRNA

Compound	drug sensitivity score [1]	drug sensitivity score [2, 10]	drug sensitivity score [2, 11]	drug sensitivity score [3, 10]	drug sensitivity score [3, 11]	drug sensitivity score [4]	drug sensitivity score [5, 10]	drug sensitivity score [5, 11]	drug sensitivity score [6]	drug sensitivity score [7]	drug sensitivity score [8]	drug sensitivity score [9]
CC(C)(C)C[C@@H]1N[C@@H](C(=O)N[C@H]2CC[C@H](O)CC2)[C@H](c2cccc(Cl)c2F)[C@]12C(=O)Nc1cc(Cl)ccc12	4.9	2.7	1.2	4.8	0.1	10.5	1.9	0.8	5	< 0	8.1	15.8
CC(C)(C)c1cc(NC(=O)Nc2ccc(Oc3ccnc4[nH]c(=O)cnc34)cc2F)n(-c2ccccc2)n1	4.2	3.9	9.1	1.8	8.3	0.4	2.15	9.4	0.3	3.9	0.7	0.3
CC(C)Oc1ccc(C(=O)N[C@H](CNC(=O)CN(C)C)Cc2ccc(-c3cn4cccc([C@H](C)O)c4n3)cc2)cc1Cl	11.9	7.7	9.5	8.9	6.4	0.2	15.1	2.5	4.2	12.7	6	14.9
CCc1cncnc1N1CCN(Cc2nc3ccc(C(F)(F)F)cc3[nH]2)CC1	0.5	1.2	2	0.1	0.7	8.9	2.3	0.8	4.3	1.9	3.2	2.9
CCn1c(-c2nonc2N)nc2c(C#CC(C)(C)O)ncc(OC[C@H]3CCCNC3)c21	1.5	< 0	4.8	< 0	0.5	5.7	0.9	< 0	11.5	7.3	7.2	8.3
CCn1cc(-c2ccnc3[nH]c(-c4cccc(CN(C)C)c4)cc23)c(-c2ccc(NC(=O)N(C)C)cc2)n1	2.8	0.4	< 0	< 0	0.4	< 0	< 0	< 0	0.2	2.25	2.9	4.1
CN(C)CC#Cc1ccc(OCCCc2sc(N3CCc4cccc(C(=O)Nc5nc6ccccc6s5)c4C3)nc2C(=O)O)c(F)c1	16.8	23.3	2.6	6.3	0.5	30.1	4.55	9.9	19.3	18.7	14.1	31.9
CN1CCN(C2CCC(n3cc(-c4ccc(Oc5ccccc5)cc4)c4c(N)ncnc43)CC2)CC1 (stereo unspecified)	14.6	18.9	10.8	9.9	11.5	14.7	16.8	12	7	5.85	18.6	18.4
CNC(=O)c1ccccc1Nc1nc(Nc2ccc3c(c2OC)CCC[C@H](N2CCN(CCO)CC2)C3)ncc1Cl	6.9	12.4	7.5	7.1	5.6	5.3	7.7	6.3	5.5	7.5	9.6	10.2
CNc1ncc2cc(-c3cc(NC(=O)NCCC(C)(C)C)c(F)cc3C)c(C)nc2n1	7.4	12.2	9.2	7.6	13.6	14.3	11.6	6.2	6.2	1.85	11.9	18.2
CO[C@@H](C)Cn1c(=O)n(C)c2cnc3ccc(-c4cncc(C(C)(C)O)c4)cc3c21	6.9	11.3	8	7.2	8.5	12.6	8.4	8.4	11.6	6.85	12	16.8
COc1ccc2[nH]cc(/C=C3\C(=O)Nc4ccc(NC(=O)CCN5CCCCC5)cc43)c2c1	11	7.4	7.5	7.8	8	5.8	7.75	5.2	6.7	6.15	9.7	14.3
C[C@@H](Oc1cc(-n2cnc3ccc(CN4CCN(C)CC4)cc32)sc1C(N)=O)c1ccccc1C(F)(F)F	12	16.7	8.4	25	7.5	1.6	12.6	6.3	8.5	9.8	12.1	24.1
C[C@@]1(C(=O)Nc2ccc(F)nc2)CCCN1c1nc(Nc2cc(C3CC3)n[nH]2)c2cccn2n1	10.8	7.2	8.9	6	4.4	4.1	5.25	5	16.6	13.8	11.5	14.1
Cc1c(-c2ccc(N3CCc4cccc(C(=O)Nc5nc6ccccc6s5)c4C3)nc2C(=O)O)cnn1CC12CC3CC(CC(C3)C1)C2	9.6	19.8	< 0	2.4	< 0	24.8	1.25	3.3	7.6	7.4	1.2	13.9
Cc1nc(Nc2n[nH]c3c2CN(C(=O)N[C@H](CN(C)C)c2ccccc2)C3(C)C)c2sccc2n1	14.3	11.1	15.3	16.6	13.6	14.8	12.3	8.6	11.8	9.6	16.6	20.8
Cc1nn(C)c(COc2ccc(N3CCN(S(=O)(=O)N(C)C)CC3)cc2)c1-c1cccc2c(CCCOc3cccc4ccccc34)c(C(=O)O)n(CCN3CCOCC3)c12	8.8	10.1	4.9	7.3	3.4	4.6	6.25	5.8	6.5	5.7	7.2	4.9

Compound	drug sensitivity score [1]	drug sensitivity score [2, 10]	drug sensitivity score [2, 11]	drug sensitivity score [3, 10]	drug sensitivity score [3, 11]	drug sensitivity score [4]	drug sensitivity score [5, 10]	drug sensitivity score [5, 11]	drug sensitivity score [6]	drug sensitivity score [7]	drug sensitivity score [8]	drug sensitivity score [9]
Cn1cc(C2=Nc3cc(NC(=O)C(N)C4CCCCC4)cc4c3C2=CNNC4=O)cn1 (stereo unspecified)	16.4	9.2	5.1	4.7	4.9	6.4	7.35	3.5	6.8	12.8	6.2	10.7
O=C(NOC[C@H](O)CO)c1ccc(F)c(F)c1Nc1ccc(I)cc1F	3	4.6	4.2	0.6	6.2	3.9	5.9	4	3.1	< 0	9.4	7.8
O=C(Nc1ccc2[nH]nc(-c3ccncc3)c2c1)[C@@H]1CCN(CC(=O)N2CCN(c3ccc(-c4ncccn4)cc3)CC2)C1	7.4	13.4	8.5	4.1	12.8	16.7	12.6	8	10.2	0.35	18.4	22
COc1ccc(C[C@H](NC(=O)[C@H](C)NC(=O)CN2CCOCC2)C(=O)N[C@@H](Cc2ccccc2)C(=O)C2(C)CO2)cc1 (stereo in doubt) [ONX-0914]	22.7	17.6	12.3	18.3	15.5	23.8	14.6	16.4	20.3	19.9	17.6	17.4
CC/C(=C(\c1ccc(O)cc1)c1ccc(OCCN(C)C)cc1)c1ccccc1 [4-hydroxytamoxifen]	6	4.9	3.2	8.4	2.3	3	5.1	2.4	4.6	3.6	6	6
Nc1ncnc2c1nc(N)n2[C@@H]1O[C@H](CO)[C@@H](O)[C@H]1O [8-amino-adenosine]	19.1	26.2	21.1	23.4	19.8	24.8	23.3	20.1	17.8	17.4	22.7	27.9
Nc1ncnc2c1nc(Cl)n2[C@@H]1O[C@H](CO)[C@@H](O)[C@H]1O [8-chloro-adenosine]	6	18.4	6.9	12.9	9.4	10.4	5.75	12.1	13.8	7.45	5.9	20.2
COc1ccc(S(=O)(=O)Nc2cccnc2Nc2ccc(O)cc2)cc1 [ABT-751]	9.7	7	5.4	10.2	6.3	5.1	7.95	3.6	6.8	8.8	9.6	11.8
CC(C)[C@H](C(=O)Nc1ccc(C(=O)NO)cc1)c1ccccc1 [AR-42]	10	12.4	9	9.1	8.5	10.5	12.8	6.6	9.8	9.25	5.8	10.9
Cc1sc2c(c1C)C(c1ccc(Cl)cc1)=N[C@@H](CC(=O)Nc1ccc(OCCOCCOCCOCCNc3cccc4c3C(=O)N(C3CCC(=O)NC3=O)C4=O)cc1)c1nnc(C)n1-2 (stereo partly specified) [ARV-825]	3.2	9.7	9.1	10.2	8.1	6.7	8.3	10.5	8.7	0.6	8.2	8.9
COc1cc(N2CCC(N3CCN(C)CC3)CC2)ccc1Nc1ncnc(Nc2ccccc2S(=O)(=O)C(C)C)n1 [ASP3026]	5.5	5.3	4.5	5.7	5.1	5.3	4.5	3.2	3.4	3.85	8.1	7.7
O=C(NC1CCNCC1)c1n[nH]cc1NC(=O)c1c(Cl)cccc1Cl [AT7519]	13.6	17.2	14.5	14	14	20.5	15	7.7	18.2	14.1	16.3	20.5
O=C(Nc1c[nH]nc1-c1nc2ccc(CN3CCOCC3)cc2[nH]1)NC1CC1 [AT9283]	4.4	6.9	3.1	7.3	4.8	3.1	5.7	3.2	< 0	2.9	8.2	6.1
CCN(CC)CCCC(C)Nc1ccnc2cc(Cl)ccc12 (stereo unspecified) [Chloroquine]	8.8	8.6	5.8	8.4	7.8	5.8			7.7	7.6	9.1	9
Nc1ccn([C@@H]2O[C@H](CO)[C@@H](O)[C@@H]2O)c(=O)n1 [Cytarabine]	2.1	4.1	< 0	13.4	7.2	6			5.7	< 0	3.6	10.5
Cc1ccc(C(=O)Nc2ccc(CN3CCN(C)CC3)c(C(F)(F)F)c2)cc1C#Cc1cnc2cccnn12 [Ponatinib]		10.2	8.3	4.7	6.9		7.8	8				
CC[C@]1(O)C[C@H]2CN(CCc3c([nH]c4ccccc34)[C@@](C(=O)OC)(c3cc4c(cc3OC)N(C=O)[C@H]3[C@@](O)(C(=O)OC)[C@H](OC(C)=O)[C@]5(CC)C=CCN6CC[C@]43[C@@H]65)C2)C1 [Vincristine]	13.8	3.4	9.1			0.5	4.75	2.7	5	14.9	8.9	6.4

From the supplement of paper PMC9386025
